Test results reported in patent publication US20110053859A1, “METHODS TO REDUCE THE EFFECTS OF SLEEP DEPRIVATION” (The U. S. Government Respresented by the Department of …, priority 2007, published 2011).
Entries after “also recorded” stand apart in the source; their conditions may differ.

Legend:
[1] = tested on: alert non sleep deprived monkeys; test: Multi-image delayed match to sample (DMS) task in alert non-sleep-deprived monkeys; type: in vivo, rhesus monkeys (Macaca mulatta); details: for DMS performance vs saline control: IV 10.0 μg/kg, all 8 monkeys
From the text: (§1) Subjects: All procedures were reviewed and approved by the Institutional Animal Care and Use Committee of Wake Forest University, and performed in accordance with established practices as described in the National Institutes of Health Guide for Care and Use of Laboratory Animals. Eight adult male rhesus monkeys (Macaca mulatta) weighing (8.0-11.0 kg) were utilized in this study. They were individually housed in stainless steel cages in temperature and humidity controlled colony rooms with lighting maintained on a 0600:1800 on:off schedule and fed a diet of monkey chow supplemented by fresh fruit to maintain daily monitored body weight. Fluid intake was restricted in time and amount such that a prescribed volume of an animal's normal daily fluid intake (80 ml/kg) was received either during the behavioral testing session, or within 2 hours of being returned to the home cage.
(§2) Behavioral Testing: Each monkey was exposed to 6 different testing conditions (Normal Vehicle, Alert orexin-A (IV and nasal), Sleep Deprivation, Sleep Deprivation+orexin-A (IV or nasal) which required 11-14 test sessions for each of the 8 monkeys. Animals were placed in a primate chair 1.5 meters in front of an LCD-front-projection screen for daily testing on a multi-image visual delayed match to sample (DMS) task (Porrino 2005) and performed 150-300 trials per session. Animals were trained to move a cursor tracked by a fluorescent marker attached to the back of the monkey's hand into the images by positioning the hand within a two dimensional coordinate system on the chair counter. Stimuli consisted of clip art images projected as 25 cm squares within a 3×3 position matrix onto a 1.0 meter×1.0 meter display. Responses to appropriate stimuli were rewarded with diluted fruit juice delivered via a sipper tube placed in front of the mouth. All animals were trained to a stable baseline on the DMS task in which delay varied randomly from (range 1-60 sec to 1-90 sec across animals) on a given trial, and the number of non-match stimuli (images) varied randomly from 2 to 8 in the Match phase of the task (Porrino 2005). As shown previously performance accuracy varied directly with duration of delay and number of nonmatch images (#images) presented in the Match phase (Hampson 2004, Porrino 2005). Each stimulus image (sample or nonmatch) was used on only one trial during a daily session and the sets of images were routinely changed every two weeks to maintain the trial unique feature of each session. Performance was monitored daily on the DMS task and there was no testing on weekends.
Drug Administration: orexin-A (hypocretin-1) was mixed in saline for IV injections and in sterile water for nasal application. […]

[2] = tested on: drowsy monkeys; test: DMS task in drowsy monkeys tested at the end of their normal day (4 PM); type: in vivo; details: for DMS performance at normal testing time: normal testing conditions (alert), nasal; for DMS performance impairment (high load and extended delay trials) in drowsy condition: tested at 4 PM, nasal spray 1.0 μg
Procedure: Monkeys were tested at the end of their normal day 12 hr day at 4 PM, approximately 6-8 hours later than their normal testing period, in what can be considered a “drowsy” condition just prior to the onset of their dark cycle at 6 PM (Price 2003, Thomas 2000). At this time animals were impaired in performance relative to their normal testing times (high cognitive load: F(1.72)=8.49. p<0.001; extended delays-very high cognitive load: F(1.72)=5.84, p<0.01) during the day. […] F refers to an analysis of variance and the numbers in parentheses are the degrees of freedom, essentially the number of subjects and conditions (−1). The F value is the an indication of the effect size as measured by the analysis of variance, which is translated into a probability (p) value. This is a standard test for significance. […] Performance was decreased in animals administered nasal sprays of saline at this time of testing. Nasal orexin-A administered at 4 PM improved performance back to normal levels.

[3] = tested on: sleep deprived (30-36 hrs) rhesus monkeys; test: Multi-image DMS task after 30-36 hrs of sleep deprivation; type: in vivo, rhesus monkeys (Macaca mulatta)
From the text: as §1, §2
Sleep Deprivation Procedure: Sleep deprivation consisted of 30-36 hours of continuous sleep prevention supervised by laboratory personnel as previously verified using EEG recordings and sleep architecture to be a valid method of depriving animals of slow wave and REM sleep (Porrino 2005). Animals were maintained in a cage separate from their home cage in a continuously lighted room and kept awake with videos, music, occasional treats, gentle cage shaking, and interaction with technicians until their usual daily testing time. Animals were allowed 10 days between sleep deprivation episodes and were allowed to sleep after testing on each day following the 30-36 hr sleep deprivation episode. There were no residual effects of sleep deprivation on testing 24 hrs after the sleep deprivation procedure and animals returned to there normal sleep patterns on the next night following the sleep deprivation procedure.
Drug Administration: orexin-A (hypocretin-1) was mixed in saline for IV injections and in sterile water for nasal application. For IV administration orexin-A, (#003-30, Phoenix Pharmaceuticals, Mountain View, Calif.) was dissolved in physiological saline as a stock solution of 200 μg/ml which was then diluted in saline to inject 3 different doses of 2.5, 5.0 and 10.0 μg/kg via an indwelling catheter placed in either the femoral or jugular vein using a glass syringe. […]

[4] = tested on: sleep deprived monkeys; test: PET (FDG) local cerebral glucose metabolism (CMRglc) during DMS task in sleep deprived monkeys; type: in vivo, rhesus monkeys (Macaca mulatta)
From the text: Measurement of Local Rates of Cerebral Glucose Metabolism: Measurement of rates of cerebral glucose metabolism (CMRglc) were made in 8 monkeys in four different conditions: normal alert DMS task vehicle; DMS task-Sleep Deprivation vehicle; DMS task-Sleep Deprivation+orexin A (IV or nasal). All animals (n=8) were acclimated to the PET scan sessions to the extent that performance was not influenced by the injection or blood collection procedures. On the day of the scan the monkeys were placed in primate chairs and received a 30 sec injection of 3-5 mCi of [^18]-2-deoxy-2-fluoro-D-glucose (FDG). The DMS task was initiated 5-10 min later and was performed for a total of 40 minutes (80-100) trials while the FDG was incorporated and taken up by cells during performance in the DMS task. After 40 min animals were then anesthetized with ketamine (15 mg/kg, iv) and transported to the PET scanner. Following scan acquisition, monkeys were transported back to their home cages and continuously monitored until fully recovered. Effects of anesthesia and other factors associated with the PET scanning procedures were previously assessed and shown to not influence measures of isotope uptake.
To calculate glucose uptake tracer concentrations were measured in blood samples using an automated gamma well counter from three blood samples collected from the femoral vein at 10 minutes prior to tracer injection and 8 and 42 minutes post-injection. A population-averaged FDG blood curve (calculated for monkey) was scaled to the measured blood curve for the time period from injection to the end of the PET scan (Sokoloff 1977). Data were transformed to CMRglc based on the operational equation (Phelps 1979, Kennedy 1978). Rate constants (k1, k2, and k3) and lumped constant as determined in monkey by Kennedy et. al. 1978, along with a k4 value used in human studies (Phelps 1979). PET scans were performed with a General Electric (GE) Advance NXi PET scanner with a resolution of 4 mm and consisted of a five minute transmission scan acquired in 2D mode, followed by a ten minute emission scan acquired in 3D mode. The image reconstruction of the 3D data used the 3D-reprojection method with full quantitative corrections and smoothed using a 4 mm Gaussian filter transaxially and then segmented. Data were corrected for attenuation and reconstructed into 128 by 128 matrices using a Hanning filter with a 4mm cutoff transaxially and a ramp filter with an 8.5 mm cutoff axially.
PET data were analyzed with Statistical Parametric Mapping (SPM99) software (http://www.fil.ion.ucl.ac.uk/spm/) implemented in MATLAB (MathWorks, Natick, Mass.). Reconstructed images for each scan from each of the 8 monkeys were co-registered to corresponding structural MR images obtained on a 1.5-T MR scanner (GE Medical Systems, Milwaukee, Wis.) using automated image registration (Black 2001) and then transformed spatially into a standard space with an FDG template for rhesus monkeys constructed in our laboratory based on procedures of Black and colleagues (Paxinos 2003). Resultant images were smoothed using a 2 mm isotropic Gaussian kernel with a voxel size of 1×1×1 mm. Scans were normalized for differences in global activity by proportional scaling. Effects at each voxel were estimated according to the general linear model using the multi-subject conditions and covariates option in SPM. Statistical maps were created for comparisons of the […] different experimental conditions: Normal Alert Vehicle vs. Normal Alert orexin-A (IV or nasal); Sleep Deprivation vs. Normal Alert Vehicle; Sleep Deprivation vs. Sleep Deprivation+orexin-A (IV or nasal) and Sleep Deprivation+orexin-A IV vs. Sleep Deprivation+orexin-A nasal. Exploratory analyses used a minimum voxel height (magnitude) threshold of p<0.01 and a minimum cluster size of 50 voxels. […]

[5] = nasal vs IV in the same monkeys

## orexin-A: 33 residue neuropeptide hypocretin-1, residues 34-66 of human prepro-orexin; bought from Phoenix Pharmaceuticals (#003-30) (QPLPDCCRQKTCSCRLYELLHGAGNHAAGILTL; Orexin-A; UniProt O43612 34-66, looked up)
[1]
  DMS performance vs saline control: slight but significant performance impairment
[1]; listed as Orexin-A
  DMS performance vs saline control: significant reduction
[1]; IV 2.5, 5.0 and 10.0 μg/kg
  DMS performance, dose relation: dose-related trend toward reduced performance
[1]; nasal spray 1.0 μg
  DMS performance in normal alert sessions: little or no effect on DMS performance; also recorded: no significant effects
[2]
  DMS performance at normal testing time: no effect on performance
  DMS performance impairment (high load and extended delay trials) in drowsy condition: reversed completely
[2]; listed as hyocretin
  DMS performance at normal testing time: no effect on cognitive performance
  DMS performance impairment (high load and extended delay trials) in drowsy condition: reverses cognitive deficits
[3]; IV 10.0 μg/kg
  Monkeys that failed to show significant improvement on high load trials: one of 8
[3]; IV 5.0 and 10.0 μg/kg
  DMS performance on high cognitive load trials vs sleep deprived sessions: significantly improved relative to sleep deprived sessions
  DMS performance on low cognitive load trials vs alert condition: performed with the same efficiency as in the alert condition
  DMS performance vs alert non-sleep deprived levels: neither dose restored performance to alert non-sleep deprived levels
  DMS performance vs sleep deprived saline sessions: systematically increased performance; also recorded: partially reversed the detrimental effects on performance
[3]; nasal 1.0 μg vs IV 10.0 μg/kg
  DMS performance on low cognitive load trials, nasal vs IV: no difference between IV and nasal orexin-A
  DMS performance overall and on high cognitive load trials, nasal vs IV: significantly more effective
[3]; nasal 1.0 μg, overall, low and high load trials
  Overall DMS performance vs sleep deprivation saline: reversed the detrimental effects of 30-36 hr sleep deprivation
[3]; nasal spray 1.0 μg
  DMS performance on high cognitive load trials: elevated performance above normal alert levels
  DMS performance on low cognitive load trials: returning performance to normal alert levels
[3]; nasal spray 1.0 μg, extended delays (90-120 sec)
  DMS performance on extended delay trials: significantly above extended delay trials in both control sleep deprived and normal alert sessions; also recorded: significantly improved
[4]; IV 10.0 μg/kg
  Local CMRglc in DPFC vs sleep deprivation vehicle: significant increases
  Local CMRglc in DStr vs sleep deprivation vehicle: significant increases
  Local CMRglc in MTL vs sleep deprivation vehicle: significant decrease
  Local CMRglc in Thal vs sleep deprivation vehicle: significant increases
[4]; nasal spray mist 1.0 μg
  Local CMRglc in DPFC vs sleep deprivation vehicle: significantly elevated bilaterally
  Local CMRglc in MTL vs sleep deprivation vehicle: significant decreases
[4]; [5]
  Change of CMRglc in DPFC, nasal vs IV: greater increases in CMRglc bilaterally
  Change of CMRglc in DStr, nasal vs IV: greater increases in CMRglc bilaterally
  Change of CMRglc in MTL, nasal vs IV: decreased CMRglc
  Change of CMRglc in Thal, nasal vs IV: greater increases in CMRglc bilaterally
